Laboratory results published in a compilation of properties of binary mixtures (doi:10.1016/j.jct.2023.107038).

Assay: xn = mol fraction of the nth substance listed
Details: 96.7 kPa

CC(=O)[O-].CC[n+]1ccn(C)c1 + OCC(F)(F)F
x2 = 0
Details	viscosity [mPa·s]
293.15 K	181
298.15 K	135
303.15 K	100
308.15 K	76
323.15 K	38.5
328.15 K	31.4
333.15 K	26

CC[n+]1ccn(C)c1.O=S(=O)([N-]S(=O)(=O)C(F)(F)F)C(F)(F)F + OCC(F)(F)F
x2 = 0
Details	viscosity [mPa·s]
293.15 K	39.2
298.15 K	32.9
303.15 K	27.8
318.15 K	17.6
323.15 K	15.4
328.15 K	13.6
333.15 K	12.2

OCC(F)(F)F + CC(=O)[O-].CC[n+]1ccn(C)c1
viscosity [mPa·s]
Details	293.15 K	298.15 K	303.15 K	308.15 K	313.15 K	318.15 K	323.15 K	328.15 K	333.15 K
x1 = 0.048	157	–	–	67	53	42.2	34.3	28.4	23.7
x1 = 0.103	138	104	79	61	48.5	39.2	31.6	26.5	–
x1 = 0.204	–	75	59	–	37.7	30.6	25.6	21.4	18.2
x1 = 0.298	69	54	42.9	34.7	28.5	23.7	20	–	14.5
x1 = 0.402	46.1	–	–	24.2	21.1	17.6	–	12.9	11.3
x1 = 0.603	–	14.6	12.4	11	9.5	–	7.4	6.5	–
x1 = 0.801	6.2	5.5	4.85	4.32	–	3.54	–	2.94	2.69
x1 = 1	2.01	1.8	1.59	1.41	–	1.1	1.01	0.93	–

OCC(F)(F)F + CC[n+]1ccn(C)c1.O=S(=O)([N-]S(=O)(=O)C(F)(F)F)C(F)(F)F
viscosity [mPa·s]
Details	293.15 K	298.15 K	303.15 K	308.15 K	313.15 K	318.15 K	323.15 K	328.15 K	333.15 K
x1 = 0.051	–	30.2	25.7	22	–	16.5	14.5	12.7	11.4
x1 = 0.099	32.5	27.4	23.4	20	17.6	15.2	–	11.8	10.7
x1 = 0.204	25.7	23.1	19.6	–	14.3	13.1	11.5	10.1	9.3
x1 = 0.303	–	17.7	15.3	13.5	11.8	10.3	9.4	8.4	7.6
x1 = 0.396	–	13.5	11.7	10.3	–	8.2	7.3	6.8	–
x1 = 0.599	8.3	7.3	–	5.8	5.2	–	4.3	3.92	3.59
x1 = 0.799	–	3.53	3.16	2.96	2.68	2.47	2.27	–	1.95
x1 = 1	2.01	1.8	1.59	–	1.26	1.1	1.01	0.93	–
